Reference: US20240400620A1, “Compositions Containing Coronavirus Proteins and Epitopes” (priority 2021, published 2024)
Like-named read-outs stand apart in the source and are kept apart here. No end group written: not given here.

How the values were obtained:
[1] = tested on: activated (CD44+ CD62L−) CD8+ T cells from B.1.351-infected HLA-B*0702 Ifnar1^−/− mice; assay type: cell-based
[2] = tested on: splenocytes or lung leukocytes (IFNγ-producing peptide-specific T cells) from DNA-vaccinated HLA-B*0702 mice; assay: IFNγ-ELISpot, cells of DNA-vaccinated HLA-B*0702 Ifnar1^−/− mice stimulated with SARS-CoV-2 peptides; assay type: cell-based; conditions: 20 h; for IFNγ production (ELISpot) compared with unstimulated control cells: splenocytes, day 21, 10 μg/mL peptide; for IFNγ secretion (ELISpot): lung leukocytes, 10 μg/mL peptide
[3] = tested on: splenocytes or lung leukocytes from DNA-vaccinated HLA-DRB1*0101 mice; assay type: cell-based; conditions: for stimulation of IFNγ production (ELISpot): splenocytes
[4] = tested on: activated CD4+ T cells from OC43-infected HLA-DRB1*0101 Ifnar1^−/− mice; assay type: cell-based; conditions: for expansion of peptide-reactive IFNγ+ CD4+ T cells: day 8 post-OC43 infection
[5] = tested on: activated CD8+ T cells from OC43-infected HLA-B*0702 Ifnar1^−/− mice; assay type: cell-based; conditions: splenocytes
SARS-CoV-2 B.1.351 = conditions: mouse, in vivo
[6] = spleen, day 16 post-OC43 infection

FARTRSMWSF (misc_feature - Membrane; Severe acute respiratory syndrome-related coronavirus) [M103-112]
frequencies of activated IFNγ+, IFNγ+/TNF+, IFNγ+/CD107a+ and IFNγ+/TNF+/IL-2+ CD8+ T cells compared with unstimulated cultures [1]: no significant expansion

SPRRARSV (misc_feature - Spike; Severe acute respiratory syndrome-related coronavirus) [S680-687]
IFNγ production (ELISpot) compared with unstimulated control cells [2]: significantly higher levels of IFNγ

LNTLVKQLSSNFGAI [S959-973]
stimulation of IFNγ production (ELISpot) [3]: significant stimulation of IFNγ production

YYRRATRRIRGGDGK (misc_feature - Nucleoprotein; Severe acute respiratory syndrome-related coronavirus) [N86-100]
IL-2 production by CD4+ T cells ([4]; day 16 post-OC43 infection): stimulated IL-2 production | expansion of polyfunctional cross-reactive IFNγ+/TNF+ CD4+ T cells [4, 6]: significantly expanded

LSPRWYFYYLGTGPEAGL (misc_feature - Nucleocapsid; Severe acute respiratory syndrome-related coronavirus) [N104-121]
expansion of peptide-reactive IFNγ+ CD8+ T cells ([5]; day 16 post-OC43 infection): 9 fold | expansion of peptide-reactive IFNγ+/TNF+ CD8+ T cells ([5]; day 16 post-OC43 infection): 12 fold

LSPRWYFYYL [N104-113]
frequencies of N104-113-reactive polyfunctional (IFNγ+/TNF+, IFNγ+/TNF+/IL-2+) and cytotoxic multifunctional (IFNγ+/CD107a+) CD8+ T cells vs mock-immunized (SARS-CoV-2 B.1.351): significantly increased

GSLVVRCSFYEDFLE [ORF896-110]
frequencies of cross-reactive IFNγ+ CD4+ T cells [4, 6]: significantly increased

LKFPRGQGVPI (misc_feature - Nucleoprotein; Severe acute respiratory syndrome-related coronavirus) [N64-74]
IFNγ secretion (ELISpot) [2]: significant IFNγ secretion | IFNγ production (ELISpot) compared with unstimulated control cells [2]: significantly higher levels of IFNγ

PKEITVATSRTLSYY (misc_feature - Membrane; Severe acute respiratory syndrome-related coronavirus) [M165-179]
stimulation of IFNγ production (ELISpot) [3]: significant stimulation of IFNγ production

VPVAIHADQL (misc_feature - Spike; Severe acute respiratory syndrome-related coronavirus) [S620-629]
IFNγ production (ELISpot) compared with unstimulated control cells [2]: significantly higher levels of IFNγ

LPKGIMMNV (misc_feature - ORF1ab; Severe acute respiratory syndrome-related coronavirus) [ORF1ab6834-6844]
frequencies of activated IFNγ+ and IFNγ/TNF+ CD8+ T cells ([5]; day 8 post-OC43 infection): increase was significant

LYLYALVYFLQSINF [ORF3a106-120]
IL-2 production by CD4+ T cells ([4]; day 16 post-OC43 infection): stimulated IL-2 production

VLAAVYRINWITGGI (misc_feature - Membrane; Severe acute respiratory syndrome-related coronavirus) [M66-80]
expansion of peptide-reactive IFNγ+ CD4+ T cells ([4]; spleen): statistically significant

TSNFRVQPTESIVRF [S315-329]
stimulation of IFNγ response (ELISpot) ([3]; lung leukocytes): significantly stimulated a response | stimulation of IFNγ production (ELISpot) [3]: significant stimulation of IFNγ production | IFNγ response (ELISpot) ([3]; splenocytes and lung leukocytes): capable of stimulating both splenocytes and lung leukocytes

KFPRGQGVPI (misc_feature - Nucleoprotein; Severe acute respiratory syndrome-related coronavirus) [N65-74]
IFNγ secretion (ELISpot) [2]: significant IFNγ secretion | IFNγ production (ELISpot) compared with unstimulated control cells [2]: significantly higher levels of IFNγ

APHGVVFL [S1056-1063]
frequencies of activated IFNγ+, IFNγ+/TNF+, IFNγ+/CD107a+ and IFNγ+/TNF+/IL-2+ CD8+ T cells compared with unstimulated cultures [1]: no significant expansion | IFNγ secretion (ELISpot) [2]: significant IFNγ secretion | IFNγ production (ELISpot) compared with unstimulated control cells [2]: significantly higher levels of IFNγ

RCSFYEDFLEYHDVR [ORF8101-115]
frequencies of cross-reactive IFNγ+ CD4+ T cells [4]: significantly increased

FPRGQGVPIN (misc_feature - Nucleoprotein; Severe acute respiratory syndrome-related coronavirus) [N66-75]
IFNγ secretion (ELISpot) [2]: significant IFNγ secretion | IFNγ production (ELISpot) compared with unstimulated control cells [2]: significantly higher levels of IFNγ

QSINFVRIIMRLWLC [ORF3a116-130]
expansion of peptide-reactive IFNγ+ CD4+ T cells ([4]; spleen): statistically significant

TNSPRRARSVA (misc_feature - Spike; Severe acute respiratory syndrome-related coronavirus) [S678-688]
frequencies of activated IFNγ+, IFNγ+/TNF+, IFNγ+/CD107a+ and IFNγ+/TNF+/IL-2+ CD8+ T cells compared with unstimulated cultures [1]: no significant expansion | IFNγ production (ELISpot) compared with unstimulated control cells [2]: significantly higher levels of IFNγ

LPKEITVAT (misc_feature - Membrane; Severe acute respiratory syndrome-related coronavirus) [M164-172]
frequencies of activated IFNγ+, IFNγ+/TNF+, IFNγ+/CD107a+ and IFNγ+/TNF+/IL-2+ CD8+ T cells compared with unstimulated cultures [1]: no significant expansion

FPRGQGVPINT (misc_feature - Nucleoprotein; Severe acute respiratory syndrome-related coronavirus) [N66-76]
frequencies of activated IFNγ+, IFNγ+/TNF+, IFNγ+/CD107a+ and IFNγ+/TNF+/IL-2+ CD8+ T cells compared with unstimulated cultures [1]: no significant expansion | IFNγ secretion (ELISpot) [2]: significant IFNγ secretion | IFNγ production (ELISpot) compared with unstimulated control cells [2]: significantly higher levels of IFNγ

SPRWYFYYLG (misc_feature - Nucleoprotein; Severe acute respiratory syndrome-related coronavirus) [N105-114]
IFNγ production (ELISpot) compared with unstimulated control cells [2]: significantly higher levels of IFNγ

SPRRARSVA (misc_feature - Spike; Severe acute respiratory syndrome-related coronavirus) [S680-688]
IFNγ production (ELISpot) compared with unstimulated control cells [2]: significantly higher levels of IFNγ
